{
  "source": "patent US20180303101A1",
  "about": "“METHOD OF IMPROVING GRASS QUALITY” (priority 2004, published 2018)",
  "format_in_all_cases": "in vivo",
  "key": {"[1]": {"tested_on": "creeping bentgrass (variety Penncross) turf", "assay": "Bentgrass color rating after foliar spray (Example 2)", "details": "6 weeks after treatment; 6.8, 13.9 and 20.4 grams per 1000 sq. ft.; analysis of variance", "description": "Pigment Green 7 was suspended in water and applied as a foliar spray to creeping bentgrass (variety Penncross) turf with a pressurized sprayer at a spray volume of 1.37 gallons of water per 1000 sq. ft. (ca. 560 l/ha). Pigment Green 7 was applied at rates of 6.8, 13.9, and 20.4 grams per 1000 sq. ft. (0.73, 1.5, and 2.2 kg/ha, respectively). Each treatment was replicated 4 times. An untreated plot was included and was also replicated four times. The average color of the bentgrass was visually evaluated at 6 weeks after treatment. Color was evaluated on a qualitative scale from 1-9, with 9 being the highest quality and 1 the lowest quality."}, "[2]": {"tested_on": "Penncross creeping bentgrass", "assay": "Influence of foliar applied phthalocyanine pigment on creeping bentgrass photosynthesis (Example 9)", "procedure": "Studies carried out as a follow-up to Example 1 were conducted in 2005 to determine the influence of foliar applied phthalocyanine pigment on creeping bentgrass photosynthesis.\n“Penncross” creeping bentgrass plants were grown in a growth chamber on a sand soil in PVC tubes (10 cm in diameter) maintained at 20° C. Plants were maintained at a canopy height of approximately 5 cm and a nutrient solution was applied weekly to maintain adequate fertility. Four plants were treated with Pigment Green 7 at a rate of 6.92 g/1000 sq. ft. (0.74 kg/ha) (with 0.6% Tween 20 being added to keep the pigment on the leaves for better absorption) and four plants were left untreated to serve as the controls (being sprayed with water only). Photochemical efficiency, chlorophyll content, and single leaf net photosynthesis were measured at one, three, seven, and fourteen days after application. Different light intensities of 1500, 750, 500, 250, 150, 50, and 0 μmol m−2 s−1 of photosynthetically active radiation (PAR, 400-700 nm) were generated inside the leaf chamber by an LED light source to generate a light response curve. Net photosynthesis was measured as the rate of CO2 uptake φmol m−2s−1). […] Photosynthesis was higher from the first day after application and all subsequent sampling dates. […] However at intensities of from 50 to 1500 μmol photons m−2 s−1 treated plants were more efficient in utilizing the constant amount of light produced in the leaf chamber."}, "[3]": {"tested_on": "Penncross creeping bentgrass", "assay": "Canopy net photosynthetic rate at high temperature treatment (Example 1)", "description": "(§1) The following test methods were used to compare the effectiveness of a phthalocyanine composition according to the invention with known compositions. The following compositions were used in the experiments: Pigment Green 7 obtained from Sun Chemical Corporation as the water-dispersible product SUN T-64-1660 (containing 45 to 55 wt. % of Pigment Green 7) was used alone. A mixture of Pigment Green 7 and fosetyl-al was used as the commercially available product Chipco® Signature™ fungicide from Bayer Environmental Science, Montvale, N.J. The compound fosetyl-al was used as Chipco® Aliette® WDG fungicide available from Bayer Environmental Science, Montvale N.J.\n(§2) Seeds of “Penncross” creeping bentgrass were sown in polyvinyl chloride (PVC) tubes (10 cm in diameter and 20 cm in length) filled with coarse sand. Plants were kept in a growth chamber for 90 days before treatment stated to allow root and canopy establishment. The daily temperature in the growth chamber was 20/16° C., the photosynthetic photon flux density was 400 μmol m−2 s−1, and the photoperiod was 12 hours/day. […]\nCanopy net photosynthetic rate was measured as described below using a Li-6400 portable photosynthesis system (available from LiCor, Lincoln, NB)."}, "[4]": {"tested_on": "Penncross creeping bentgrass", "assay": "Root mortality at high temperature treatment (Example 1)", "details": "plants with or without pretreatment", "description": "as §1, §2\nRoot mortality was measured using the method of Knievel (1973) with modification.\nSamples of 0.5 g clean fresh roots were incubated with 10 mL 0.6% 2,3,5-triphenyltetrazolium chloride (in 0.05 M phosphate buffer, pH 7.4) for 24 hours in the dark at 30° C. […] Absorbance at 490 nm was used to determine root mortality."}, "[5]": {"tested_on": "Penncross creeping bentgrass", "assay": "Final root and canopy biomass at high temperature treatment (Example 1)", "details": "plants with and without pretreatment, end of experiment", "description": "as §1\n(§3) Seeds of “Penncross” creeping bentgrass were sown in polyvinyl chloride (PVC) tubes (10 cm in diameter and 20 cm in length) filled with coarse sand. Plants were kept in a growth chamber for 90 days before treatment stated to allow root and canopy establishment. The daily temperature in the growth chamber was 20/16° C., the photosynthetic photon flux density was 400 μmol m−2 s−1, and the photoperiod was 12 hours/day. Turf was mowed twice weekly at 4 mm with scissors, irrigated every other day until there was free drainage from the bottom of tubes, and fertilized weekly with 40 ml full-strength Hoagland's nutrient solution (Hoagland and Arnon, 1950). Insecticide was applied to kill whitefly when necessary. […]"}, "[6]": {"tested_on": "Penncross creeping bentgrass", "assay": "Shoot growth rate in canopy height at high temperature treatment (Example 1)", "details": "plants with and without pretreatment", "description": "as §1, §3"}, "[7]": {"tested_on": "Penncross creeping bentgrass", "assay": "Turf quality visual rating at high temperature treatment (Example 1)", "details": "high temperature 35/30° C., biweekly foliar application", "description": "as §1, §3"}, "[8]": {"tested_on": "creeping bentgrass (variety Penncross) turf", "assay": "Bentgrass color rating after foliar spray (Example 3)", "details": "6 weeks after treatment; Aliette 4 oz, Signature 4 and 8 oz, Pigment 6.8 and 13.6 g per 1000 sq. ft.; analysis of variance", "method": "Fosetyl-al (in the form of Aliette brand fungicide), fosetyl-al plus Pigment Green 7 (in the form of Signature brand Aliette fungicide), and Pigment Green 7 were separately suspended in water and applied as a foliar spray to creeping bentgrass (variety Penncross) turf with a pressurized sprayer at a spray volume of 1.37 gallons of water per 1000 sq. ft. (ca. 560 l/ha).\nTreatments were applied at the following rates: • Aliette 4 oz/1000 sq. ft. (ca. 1.3 mL/m2) • Signature 4 oz/1000 sq. ft. (ca. 1.3 mL/m2) • Signature 8 oz/1000 sq. ft. (ca. 2.5 mL/m2) • Pigment 6.8 g/1000 sq. ft. (0.73 kg/ha) • Pigment 13.6 g/1000 sq. ft. (1.5 kg/ha)"}, "[9]": {"details": "20° C., 6.92 g/1000 sq. ft. with 0.6% Tween 20, 1, 3, 7, 14 days after application"}},
  "data": [
    {"substance": "Pigment Green 7", "values": [
      {"measurement": "Color rating (visual, scale 1-9) versus untreated check", "setting": "[1]", "result": "significantly different than the untreated check"},
      {"measurement": "Light compensation point", "setting": "[2]; 6.92 g/1000 sq. ft. foliar application", "result": "unaltered by treatment"},
      {"measurement": "Photochemical efficiency (Fv/Fm), treated versus control plants", "setting": "[2]; [9]", "result": "No differences"},
      {"measurement": "Total chlorophyll per gram of tissue, treated versus control plants", "setting": "[2]; [9]", "result": "no statistically significant differences"},
      {"measurement": "Single leaf net photosynthesis (rate of CO2 uptake), treated versus control plants", "setting": "[2]; all light intensities greater than 50 μmol photons m−2 s−1, 6.92 g/1000 sq. ft., from first day and all subsequent sampling dates", "result": "higher for treated plants compared to controls"},
      {"measurement": "Stability after foliar application (from higher net photosynthesis on every date)", "setting": "[2]; on bentgrass leaves, 6.92 g/1000 sq. ft.", "result": "stable for at least fourteen days after foliar application"},
      {"measurement": "Net photosynthetic rate (Pn)", "setting": "[3]; plants with pretreatment", "result": "higher with application of Pigment Green 7 and Signature fungicide than with application of Aliette fungicide and water"},
      {"measurement": "Net photosynthetic rate (Pn)", "setting": "[3]; plants without pretreatment", "result": "highest"},
      {"measurement": "Root mortality", "setting": "[4]", "result": "lower root mortality than application of Signature fungicide and Aliette fungicide"},
      {"measurement": "Canopy biomass (dry weight)", "setting": "[5]", "result": "higher with application of Signature fungicide and Pigment Green 7 than with application of Aliette fungicide and water"},
      {"measurement": "Roots biomass (dry weight)", "setting": "[5]", "result": "higher with application of Signature fungicide and Pigment Green 7 than with application of Aliette fungicide and water"},
      {"measurement": "Shoot growth rate in canopy height", "setting": "[6]", "result": "higher with application of Signature fungicide and Pigment Green 7 than with application of Aliette fungicide and water"},
      {"measurement": "Turf quality (visual, scale 0 to 9)", "setting": "[7]; plants with pretreatment (sprayed 4 weeks before heat)", "result": "highest"},
      {"measurement": "Turf quality (visual, scale 0 to 9)", "setting": "[7]; plants without pretreatment", "result": "higher turf quality than applications of Signature fungicide, Aliette fungicide, and water"},
      {"measurement": "Color rating versus untreated check", "setting": "[8]", "result": "significantly different than the untreated check"}
    ]}
  ]
}
